# Entries after “also recorded” stand apart in the source; their conditions may differ. Like-named read-outs stand apart in the source and are kept apart here. d = 2'-deoxy (DNA); m = 2'-O-methyl
# How the values were obtained:
# Type in all cases: cell-based, human
# A549b cells [1] = assay: Proliferation of A549b cells after OLIGO/siRNA transfection (cell counting); conditions: for relative proliferation: FIG. 12
# Experimental: Cultured cell lines were maintained in minimum essential medium a with nucleosides plus 10% fetal bovine serum and penicillin (50 units/mL)/streptomycin (50 mg/L) (growth medium). Cultures were incubated in a humidified atmosphere of 5% CO2 at 37° C. Cultured cell lines were maintained and cytotoxicity assays conducted as described previously (3). Rapidly proliferating cells were utilized for establishing cultures of experimental cells, which were allowed to plate overnight in 25-cm^2 flasks prior to manipulation. An established cell line of non-small-cell lung carcinoma (NSCLC), A549b, which was propagated by serial dilution from a single cell of an A549 parent cell line, was used for the establishment of antisense activity of oligonucleotides. This cell line proliferates with a mean generation time of approximately 20 hours, and is capable of forming tumours in immunodeficient mice with a take rate of greater than 90%. Therefore, this cell line is a good model system that can be used in both in vitro and in vivo experiments to test the activity of OLIGOs.
# OLIGOs were introduced into cells with the use of Lipofectamine 2000 (LFA2K) (Invitrogen, Burlington, Ontario, Canada). OLIGOs were mixed with LFA2K at a ratio of 0.2 μg/ml per 10 nM OLIGO. The mixture was prepared at 11× the final concentration to which cells were exposed, so that 200 μL was added to 2 mL of medium in which cells were plated. As controls, cells were exposed to medium alone (no treatment), LFA2K alone at concentrations equivalent to those used in combination with OLIGOs (in some experiments only the maximum LFA2K concentration was used as a control), or OLIGO having no complementarity with any human mRNA. The OLIGO/LFA2K mixtures were then incubated at room temperature for 20 minutes, according to instructions supplied with the LFA2K, followed by addition of the OLIGOs to the cell medium. The OLIGO/LFA2K mix was then incubated (37° C.) on the cells for 4 hours, after which a second volume of medium was added. Cells were then incubated for 20 hours. Following this incubation, the OLIGO-containing medium was replaced with drug-free medium (i.e. medium without OLIGOs) and the cells were incubated for an additional 4 days. Following the 4-day incubation, the proliferation of the treated cells (fold-increase in cell number) was calculated as a percentage of that of control cells. Cell numbers were enumerated on an electronic particle counter (Beckman Coulter, Mississauga, ON). For the purpose of determining the anti-proliferative effect of antisense OLIGOs, the proliferation of cells treated with antisense OLIGOs was calculated as a percent of that of cells treated with an equivalent concentration of non-complementary control OLIGO (in this case OLIGO 32) mixed with an equivalent amount of LFA2K.
# OLIGO-containing medium was removed and replaced with fresh medium. Cells were incubated for 4 days, at which time cell number was counted. Proliferation was calculated as a percent of non-targeting OLIGO-treated controls.
# Cells were incubated for 4 days, at which time cell number was counted. Proliferation was calculated as a percent of controls.
# TS mRNA = assay: RT-qPCR of TS mRNA in A549 cells after OLIGO transfection; conditions: 20 nM OLIGO, 24 hours post-transfection; FIG. 16
# Experimental: (§1) Briefly, A549 cells seeded at a density of 2.0×10^5 per flask were transfected with 20 nM of OLIGO specific for each target or control OLIGO using Lipofectamine 2000 as the transfection reagent. Twenty four hours post-transfection mRNA was extracted and reverse transcribed into cDNA. RT-qPCR was performed for target mRNA levels using TaqMan reagents according to established protocols.
# BRCA2 mRNA = assay: RT-qPCR of BRCA2 mRNA in A549 cells after OLIGO transfection; conditions: 20 nM OLIGO, 24 hours post-transfection; FIG. 16
# Experimental: as §1
# SKOV-3 cells = assay: Cell proliferation assay, ASO transfection and/or drug (cell counting); conditions: single olaparib treatment, 96 hours; FIG. 27C
# Experimental: FIG. 24 illustrates that BRCA2 inhibition sensitizes ovarian cancer and breast cancer cell lines to olaparib treatment. SKOV-3 (A) and CaOV3 (B) cells were transfected with control ASO (•) or BRCA2 ASO (∘) and then treated with three different concentrations of olaparib. Proliferation was determined by cell counting 96 hours post-transfection (*p<0.05). C: BRCA2 mRNA levels were measured by qPCR 24 hours following BRCA2 ASO transfection in SKOV-3, CaOV3, 211 H and H2052 cell lines.
# E: SKOV-3 cells were transfected with control or BRCA2 ASO and then treated with olaparib 24 hours post transfection. Ninety-six hours post transfection, cells were counted, plated, and re-transfected with control ASO or BRCA2 ASO and re-treated with olaparib. Cell counts were performed 96 hours post transfection (*p<0.05). […]
# A: BRCA2-wild type SKOV-3 cells (black bars), […] MCF-7 cells (white bars), and BRCA2-mutated CAPAN-1 cells (grey bars) were treated simultaneously but separately with BRCA2 ASO (20 nM). […] Ninety-six hours post-transfection, cells were counted and proliferation determined (% of proliferation after control ASO treatment).
# C: SKOV-3, MCF-7 and CAPAN-1 cells were treated with two different concentrations of olaparib for 96 hours. After drug treatment they were counted and proliferation was determined as a percent of that of vehicle-treated cells. […]
# MCF-7 cells = assay: Cell proliferation assay, ASO and/or olaparib (cell counting); conditions: single olaparib treatment, 96 hours, vs vehicle; FIG. 27C
# Experimental: (§2) A: BRCA2-wild type SKOV-3 cells (black bars), […] MCF-7 cells (white bars), and BRCA2-mutated CAPAN-1 cells (grey bars) were treated simultaneously but separately with BRCA2 ASO (20 nM). Due to differing growth medium requirements and to avoid fluorescent label-induced changes in drug sensitivity, cells were not co-cultured. They were treated independently, at the same time with the same materials. Ninety-six hours post-transfection, cells were counted and proliferation determined (% of proliferation after control ASO treatment).
# (§3) C: SKOV-3, MCF-7 and CAPAN-1 cells were treated with two different concentrations of olaparib for 96 hours. After drug treatment they were counted and proliferation was determined as a percent of that of vehicle-treated cells.
# FIG. 28 illustrates combined BRCA2 ASO and olaparib treatment decreases the proliferation of both HRR-deficient and HRR-proficient cells. […] Proliferation was determined using cell counting 96 hours post-transfection.
# Four hours post-transfection, cells were seeded into 6 well dishes in appropriate experimental groups. […] Ninety-six hours post transfection, cells were collected and counted (Coulter Particle Counter). Proliferation was determined based on initial cell density and calculated as a percentage of ASO+vehicle treated cells.
# [2] = system: mixed cell population SKOV-3^shBRCA2:SKOV-3^shControl 3:1; assay: Co-culture model of BRCA2 heterogeneity, proliferation; conditions: 2.5 μM, FIG. 29A
# Experimental: (§4) A: SKOV-3^shBRCA2 cells (low BRCA2) were mixed with SKOV-3^shControl cells (high BRCA2) at a 3:1 ratio, resulting in a primarily HRR-deficient mixed cell population. Parental and mixed populations were treated for the first time with olaparib (1° olaparib, 2.5 μM) or vehicle. Cells were re-plated at equal density 96 hours post-treatment. Parental and mixed populations were then treated a second time with olaparib (2° olaparib, 2.5 μM) or control vehicle. Ninety-six hours post-treatment, proliferation for all groups was determined based on cell counts and seeding density following 1° olaparib or vehicle treatment. White bars: 2° olaparib. Black bars: no 2° olaparib.
# B: SKOV-3^shBRCA2 cells (low BRCA2), SKOV-3^shControl cells (high BRCA2), and a mixed cell population (3:1, low BRCA2:high BRCA2) were transfected with control ASO or BRCA2 ASO followed by treatment with vehicle or olaparib (2.5 μM). Proliferation (percent of control ASO-treated cells) was determined 96 hours post-transfection. […]
# (§5) To mimic a heterogeneous tumor cell population that is predominantly HRR-deficient, we co-cultured SKOV-3^shBRCA2 (low BRCA2) and SKOV-3^shcontrol (high BRCA2) in a 3:1 ratio. The mixed cell population, along with unmixed SKOV-3^shBRCA2 and SKOV-3^shcontrol populations, was treated with olaparib (1° Olaparib), then counted, re-seeded and treated with olaparib a second time (2° Olaparib) (FIG. 32).
# CAPAN-1 cells = assay: Cell proliferation assay, ASO and/or drug (cell counting); conditions: single olaparib treatment, 96 hours, vs vehicle; FIG. 27C
# Experimental: as §2, §3
# Four hours post-transfection, cells were seeded into 6 well dishes in appropriate experimental groups. Twenty-four hours post transfection, cells were treated with olaparib (Selleckchem) at three concentrations. Ninety-six hours post transfection, cells were collected and counted (Coulter Particle Counter). Proliferation was determined based on initial cell density and calculated as a percentage of ASO+vehicle treated cells.
# [3] = system: SKOV-3^shBRCA2 cells (low BRCA2); assay: Co-culture model, unmixed population, proliferation; conditions: olaparib 2.5 μM; FIG. 29A
# Experimental: as §4, §5
# A549b cells [4] = assay: cells; conditions: Homo sapiens, curves extrapolated, unit inferred, read-out: concentration of olaparib required to inhibit proliferation of A549b cells by 50% (IC50)
# Experimental: OLIGOs were introduced into cells with the use of Lipofectamine 2000 (LFA2K) (Invitrogen, Burlington, Ontario, Canada). OLIGOs were mixed with LFA2K at a ratio of 0.2 μg/ml per 10 nM OLIGO. The mixture was prepared at 11× the final concentration to which cells were exposed, so that 200 μL was added to 2 mL of medium in which cells were plated. After incubating at room temperature for 20 minutes, according to manufacturer's instructions, the OLIGOs were added to the cell medium. The OLIGO/LFA2K mix was then incubated (37° C.) on the cells for 4 hours, after which a second volume of medium was added. Cells were then incubated for 20 hours. Following this incubation, the OLIGO-containing medium was replaced with OLIGO-free medium.
# For cells treated with the drug olaparib, for the purposes of determining whether inhibitory activity was enhanced by the OLIGO pretreatment, olaparib was added at this time, in concentrations of from 0.01 μM to 3 μM. At this point, replicate flasks from the OLIGO-treatment were used to enumerate cell content, as this varied among treatments over the initial 24-hour exposure. This was done so that the effect of treatment with olaparib could be ascertained based on the cell population that was present at the time of initiation of exposure to olaparib. Exposure to the olaparib was initiated by addition of 0.2-volume of a preparation of the drug, at 6× final concentration in growth medium, to the fresh drug-free medium on the cells (1 ml of drug into 5 ml of medium). Following a further 4-day incubation, the proliferation of the treated cells (fold-increase in cell number) was calculated as a percentage of that of control cells. Cell numbers were enumerated on an electronic particle counter (Beckman Coulter, Mississauga, ON). As indicated in Example 1, for the purpose of determining the anti-proliferative effect of antisense OLIGOs alone, the proliferation of cells treated with antisense OLIGOs was calculated as a percent of that of cells treated with an equivalent concentration of non-complementary control OLIGO (in this case OLIGO 32). However, for the purpose of determining the anti-proliferative effect of olaparib against antisense or non-complementary (control) OLIGO-treated cells, the proliferation was calculated as a percent of cells treated with the respective OLIGO.
# These experiments were carried out essentially as described in Example 3, with the following changes. The drug tested was cisplatin instead of olaparib, and cisplatin was tested in concentrations ranging from 0.5 μM to 2 μM.
# These experiments were carried out essentially as described in Example 3, with the following changes. The drug tested was melphalan in concentrations ranging from 2 μM to 10 μM.
# These experiments were carried out essentially as described in Example 3, with the following changes. The drug tested was carboplatin at concentrations ranging from 5 μM to 40 μM.
# These experiments were carried out essentially as described in Example 3, with the following changes. The drug tested was oxaliplatin was tested in concentrations ranging from 0.2 μM to 2.5 μM.
# Cisplatin was added to the final concentration indicated, and as described in Example 3. Cells were incubated for 4 days, at which time cell number was counted. Proliferation was calculated as a percent of siRNA-treated, non-cisplatin-treated controls.
compound,measurement,setting,value
5′-UUAUCCAGGACAUCACUGC-3′ [RADb],inhibited proliferation of A549b cells,"A549b cells [1]; siRNA at 2 nM, FIG. 21",over 50%
"5′-gccaguGGCAACATccuuaa-3′ (antisense GCCAGUGGCAACATCCUUAA; sugars from the 5' end m6 d8 m6, all phosphorothioate, methylation of C not given here) [OLIGO 83]",effect on TS mRNA level,TS mRNA,reduction in TS mRNA
same,relative proliferation,"A549b cells [1]; 20 nM OLIGO 83, vs OLIGO 491S",approximately 20%
same,effect on BRCA2 mRNA level,BRCA2 mRNA,no significant effect on BRCA2 mRNA
"5′-ugcccgATACACAAacgcug -3′ (UGCCCGATACACAAACGCUG; gapmer, lower-case wings modified, type not given here) [BR3]",relative proliferation,"A549b cells [1]; 10 nM of BR3, vs equivalent concentration of OLIGO 491S",approximately 85%
same,anti-proliferative effect as single agent,"A549b cells [1]; A549/A549b cells, 4 h transfection, counted after 4 d, vs non-targeting control OLIGO",inhibit proliferation of human non-small cell lung cancer A549 cells in a concentration-dependent manner; also recorded: antiproliferative on its own
"O=C(c1cc(Cc2n[nH]c(=O)c3ccccc23)ccc1F)N1CCN(C(=O)C2CC2)CC1 [olaparib, reference compound]",effect of olaparib on proliferation,SKOV-3 cells,no effect on SKOV-3 proliferation
same,decreased the proliferation,MCF-7 cells,39%±6.8%
same,response to initial olaparib treatment,[2]; 1° olaparib,sensitive to initial treatment with olaparib
same,response to second olaparib treatment,[2]; 2° olaparib,completely unresponsive to a second treatment
same,decreased the proliferation,CAPAN-1 cells,94%±4.6%
same,response to olaparib after two treatments,[3],remained sensitive to olaparib even after two treatments
same,IC50,A549b cells [4]; in the absence of BR1 (control OLIGO 32),~5000 nM
same,IC50,A549b cells [4]; in the presence of BR1 pretreatment,~50 nM
